# Test results published in PMC9046087, “Structural basis of tethered agonism of the adhesion GPCRs ADGRD1 and ADGRF1” (Nature, 2022).
# Ends that are not written are not given here.
# Experiments:
# Assay type in all cases: cell-based
# ADGRD1 = biological target: T1, ADGRD1 (Homo sapiens, UniProt Q6QNK2); assay: BRET assay using TRUPATH biosensors, G protein activation of ADGRD1; details: Gs, ADGRD1 WT, n = 3
# T1 construct: Flag (N); expressed in transfected cells; host or cells: HEK293F
# T1 sequence (Q6QNK2 26-874): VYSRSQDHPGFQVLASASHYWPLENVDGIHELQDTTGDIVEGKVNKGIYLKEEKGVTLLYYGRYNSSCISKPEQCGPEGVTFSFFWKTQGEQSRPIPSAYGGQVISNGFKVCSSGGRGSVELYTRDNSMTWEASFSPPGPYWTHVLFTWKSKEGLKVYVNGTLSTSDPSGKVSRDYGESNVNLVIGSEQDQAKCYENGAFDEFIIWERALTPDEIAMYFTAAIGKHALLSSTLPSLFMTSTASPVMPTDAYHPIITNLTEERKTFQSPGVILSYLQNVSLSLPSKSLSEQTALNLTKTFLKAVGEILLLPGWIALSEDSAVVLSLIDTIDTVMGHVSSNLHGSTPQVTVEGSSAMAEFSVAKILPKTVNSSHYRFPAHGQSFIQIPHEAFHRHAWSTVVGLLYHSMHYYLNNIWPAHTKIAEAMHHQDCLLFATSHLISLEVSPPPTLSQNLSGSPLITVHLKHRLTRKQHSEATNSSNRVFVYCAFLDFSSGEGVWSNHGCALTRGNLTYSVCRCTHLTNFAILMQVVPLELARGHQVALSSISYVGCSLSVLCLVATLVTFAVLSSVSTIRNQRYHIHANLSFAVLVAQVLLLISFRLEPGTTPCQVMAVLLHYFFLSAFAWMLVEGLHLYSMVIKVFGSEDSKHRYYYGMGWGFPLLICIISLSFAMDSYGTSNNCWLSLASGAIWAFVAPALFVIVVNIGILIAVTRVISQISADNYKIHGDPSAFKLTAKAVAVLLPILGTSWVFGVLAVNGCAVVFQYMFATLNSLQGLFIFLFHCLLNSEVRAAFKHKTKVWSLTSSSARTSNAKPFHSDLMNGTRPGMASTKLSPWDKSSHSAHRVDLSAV
# Method: To study the synthetic stalk peptide-induced G protein activation of ADGRD1 and ADGRF1, a BRET assay using TRUPATH biosensors was conducted to measure the proximal interaction between RLuc8 fused to the Gα subunit and GFP2 fused to the Gγ subunit. The TRUPATH suite of biosensors was obtained from Addgene (Addgene kit no. 1000000163) as a gift from B. Roth, including GαsS-RLuc8, Gαi1-RLuc8, Gβ3 and Gγ9-GFP2 as previously described.
# The wild-type or mutant ADGRD1 and ADGRF1 were transiently co-transfected with plasmids encoding Gα-RLuc8 (GαsS-RLuc8 for Gs activation assay; Gαi1-RLuc8 for Gi activation assay), Gβ3 and Gγ9-GFP2 at a ratio of 2:1:1:1 (receptor plasmid, 800 ng; G protein subunit plasmids, 400 ng for each) in 2 ml HEK293F cells at a density of 1.2 × 10^6 cells per ml. Cell cultivation and receptor surface expression measurement were performed as described above. The cells were plated into 96-well white plates (40,000 cells per well) in 60 μl of assay buffer and incubated at 37 °C for 30 min. Then 10 μl of freshly prepared 50 μM coelenterazine 400a (Nanolight Technologies) was added. […] The cells were stimulated with 30 μl of synthetic stalk peptide at different concentrations and the BRET signals were monitored continuously five times. The last measurements were used in data analysis. The BRET ratios were calculated as the ratio of the GFP2 emission to RLuc8 emission.
# ADGRF1 [1] = biological target: T2, ADGRF1 (Homo sapiens, UniProt Q5T601, Q830A); assay: BRET assay using TRUPATH biosensors, Gi activation of ADGRF1; details: ADGRF1 Q830^7.49bA
# T2 construct: Flag (N); expressed in transfected cells; host or cells: HEK293F
# T2 sequence (Q5T601 20-910 Q830A): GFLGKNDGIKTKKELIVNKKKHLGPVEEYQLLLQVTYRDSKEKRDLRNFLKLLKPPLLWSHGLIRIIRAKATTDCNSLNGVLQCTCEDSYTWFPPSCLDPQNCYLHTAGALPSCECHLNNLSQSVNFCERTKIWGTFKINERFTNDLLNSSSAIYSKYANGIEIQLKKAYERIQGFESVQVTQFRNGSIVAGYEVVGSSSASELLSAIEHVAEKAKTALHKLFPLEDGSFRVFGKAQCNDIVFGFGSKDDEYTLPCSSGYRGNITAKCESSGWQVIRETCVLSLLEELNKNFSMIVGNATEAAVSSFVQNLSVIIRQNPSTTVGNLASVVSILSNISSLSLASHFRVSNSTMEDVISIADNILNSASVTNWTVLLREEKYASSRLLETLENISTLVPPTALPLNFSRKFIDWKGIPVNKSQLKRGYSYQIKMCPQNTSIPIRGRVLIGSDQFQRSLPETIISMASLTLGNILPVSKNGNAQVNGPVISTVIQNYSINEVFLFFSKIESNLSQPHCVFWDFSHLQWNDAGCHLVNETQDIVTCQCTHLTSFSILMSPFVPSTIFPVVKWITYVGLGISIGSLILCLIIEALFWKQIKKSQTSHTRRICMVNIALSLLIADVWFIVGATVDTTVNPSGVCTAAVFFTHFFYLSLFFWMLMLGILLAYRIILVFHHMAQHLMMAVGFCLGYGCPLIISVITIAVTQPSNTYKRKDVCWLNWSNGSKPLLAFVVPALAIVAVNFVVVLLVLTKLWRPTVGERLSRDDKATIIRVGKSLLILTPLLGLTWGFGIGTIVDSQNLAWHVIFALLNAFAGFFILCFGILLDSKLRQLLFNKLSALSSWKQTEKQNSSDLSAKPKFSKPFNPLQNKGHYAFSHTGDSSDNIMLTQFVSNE
# Procedure, shortened: (§1)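 G protein activation by synthetic stalk peptides, read as GFP2-to-RLuc8 emission ratio from the fifth of five successive readings. Cells: HEK293F expressing receptor (WT or mutant) with GαsS-RLuc8 or Gαi1-RLuc8 plus Gβ3 and Gγ9-GFP2 (2:1:1:1). Pre-incubated 30 min at 37 °C; substrate coelenterazine 400a.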
# ADGRF1 [2] = biological target: T3, ADGRF1 (Homo sapiens, UniProt Q5T601, L800A); assay: as above; details: ADGRF1 L800^6.49bA
# T3 construct: Flag (N); expressed in transfected cells; host or cells: HEK293F
# T3 sequence (Q5T601 20-910 L800A): as the sequence (Q5T601 20-910 Q830A) above, with L781A, A811Q counted along it
# Procedure, shortened: as §1
# [3] = n = 3, read-out: pEC50 (mean ± s.e.m.) (converted)
sequence,measurement,setting,value
TSFSILMSPFVP [pF1],Emax (mean ± s.e.m.),ADGRD1,67 ± 12 % of WT
same,EC50,ADGRD1; read-out: pEC50 (mean ± s.e.m.) (converted),1.26 µM
same,Emax (mean ± s.e.m.),ADGRF1 [1]; n = 3,124 ± 15 % of WT
same,EC50,ADGRF1 [1]; [3],0.851 µM
same,Emax (mean ± s.e.m.),ADGRF1 [2]; n = 3,105 ± 8 % of WT
same,EC50,ADGRF1 [2]; [3],0.257 µM
